The source of these data is PubChem BioAssay (NCI).

Some test systems named below: NCI-H460 lung; RPMI-8226 leukemia; RXF 393 renal; SF-268 CNS; SF-295 CNS; SF-539 CNS; SK-MEL-5 melanoma; SN12C renal; SNB-75 CNS; U251 CNS.
Assay in all cases: NCI anticancer screen, dose series, 48 h

The structures appear in SMILES notation.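 Where inhibition never reached the appropriate level, the endpoint shown equals the highest concentration tested. Otherwise, values were interpolated linearly from a five-concentration, 48-hour dose response in 96-well plates. GI50 marks 50% less growth. TGI denotes the concentration required for complete inhibition of growth.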

With `NC(=NC1C2CC3CC(C2)CC1C3)Nc1ccc(I)cc1` (centres undefined), the GI50 is 3.66 µM with NCI-H460 lung; 2.49 µM in the experiment on RPMI-8226 leukemia; 3.1 µM in the experiment on RXF 393 renal; 4.52 µM with SF-268 CNS; 2.51 µM in the experiment with SF-295 CNS; 4.16 µM with SF-539 CNS. For the same molecule, the GI50 was 1.57 µM in the experiment with SK-MEL-5 melanoma, 3.82 µM in the experiment on SN12C renal, 2.09 µM in the experiment with SNB-75 CNS and 3.42 µM in the experiment on U251 CNS. Moreover, the TGI in the experiment with NCI-H460 lung was determined as 13 µM; with RPMI-8226 leukemia it was 5.72 µM; with RXF 393 renal it was 13.5 µM; with SF-268 CNS it was 17.8 µM; in the experiment on SF-295 CNS, 6.75 µM; in the experiment on SF-539 CNS, 15.5 µM. Further, the TGI in the experiment with SK-MEL-5 melanoma was found to be 2.95 µM; in the experiment on SN12C renal it was 14.6 µM; in the experiment on SNB-75 CNS it was 15.7 µM; in the experiment with U251 CNS, 12.6 µM.
Regarding `COc1cc([N+](=O)[O-])c2ncccc2c1O`, the GI50 was 2.86 µM in the experiment on NCI-H460 lung; 27.7 µM in the experiment on RPMI-8226 leukemia; 10.6 µM in the experiment with RXF 393 renal; 9.79 µM in the experiment on SF-268 CNS; 2.29 µM in the experiment with SF-295 CNS; 2.59 µM in the experiment on SF-539 CNS. The GI50 is 1.47 µM in the experiment with SK-MEL-5 melanoma, 3.06 µM in the experiment with SN12C renal, 2.96 µM with SNB-75 CNS and 3.2 µM with U251 CNS. In addition, the TGI in the experiment with NCI-H460 lung is above 100 µM; in the experiment on RPMI-8226 leukemia, above 100 µM; in the experiment on RXF 393 renal it was 30.1 µM; with SF-268 CNS, 67.1 µM; with SF-295 CNS, 6.77 µM; in the experiment on SF-539 CNS, 9.41 µM. Further, the TGI is 2.9 µM with SK-MEL-5 melanoma, above 100 µM with SN12C renal, 17.2 µM in the experiment on SNB-75 CNS and above 100 µM in the experiment on U251 CNS.
For the molecule `C[Si](C)(C)[C@@]1([Se]c2ccccc2)CC[C@@H]1C(=O)c1ccccc1`, the TGI was above 100 µM in the experiment on NCI-H460 lung; 53 µM in the experiment with RPMI-8226 leukemia; above 100 µM with RXF 393 renal; above 100 µM with SF-268 CNS; above 100 µM with SF-295 CNS; above 100 µM in the experiment on SF-539 CNS. The TGI with SK-MEL-5 melanoma is 37.4 µM; in the experiment on SN12C renal, above 100 µM; in the experiment with SNB-75 CNS it was above 100 µM; in the experiment with U251 CNS it was above 100 µM.
Turning to `COc1cc(C(=O)c2c(-c3ccccc3)oc3ccccc23)cc(OC)c1O`, the GI50 in the experiment with NCI-H460 lung was 2.22 µM; in the experiment on RPMI-8226 leukemia, 1.83 µM; in the experiment with RXF 393 renal it was 1.76 µM; in the experiment with SF-268 CNS, 3.4 µM; in the experiment on SF-295 CNS, 2.41 µM; with SF-539 CNS, 1.64 µM. For the same molecule, the GI50 was 2.57 µM in the experiment on SK-MEL-5 melanoma, 5.23 µM in the experiment on SN12C renal, 0.231 µM with SNB-75 CNS and 3.21 µM with U251 CNS. For the same molecule, the TGI in the experiment with NCI-H460 lung stood at 10.7 µM; with RPMI-8226 leukemia it was 12.9 µM; in the experiment on RXF 393 renal it was 8.95 µM; in the experiment with SF-268 CNS it was 18.6 µM; in the experiment on SF-295 CNS, 6.94 µM; with SF-539 CNS it was 5.63 µM. Also, the TGI was 12.6 µM in the experiment with SK-MEL-5 melanoma, 26.3 µM in the experiment on SN12C renal, 2.22 µM in the experiment on SNB-75 CNS and 16.1 µM in the experiment with U251 CNS.
In the case of `COc1ccccc1OCC(COC(=O)Nc1ccc(C)cc1)OC(=O)Nc1ccc(C)cc1` (centres undefined), the TGI with NCI-H460 lung came to 30.3 µM; in the experiment on RPMI-8226 leukemia, 38.8 µM; in the experiment on RXF 393 renal, 20.2 µM; in the experiment on SF-268 CNS, 46.2 µM; in the experiment with SF-295 CNS, 49 µM; in the experiment with SF-539 CNS it was 37.7 µM. Moreover, the TGI with SK-MEL-5 melanoma worked out at 47.7 µM; with SN12C renal, 42.3 µM; in the experiment on SNB-75 CNS, 69.1 µM; in the experiment with U251 CNS, 27.3 µM.
As for `CCOc1ccc(N2C(N)=NC(N)=NC2(C)C)cc1`, the GI50 was 39.8 µM in the experiment with NCI-H460 lung; above 100 µM in the experiment with RPMI-8226 leukemia; above 100 µM in the experiment on RXF 393 renal; 49.3 µM in the experiment on SF-268 CNS; 48.1 µM with SF-295 CNS; 28.6 µM in the experiment on SF-539 CNS. Besides, the GI50 in the experiment with SK-MEL-5 melanoma is 40.8 µM; in the experiment with SN12C renal, 52.7 µM; in the experiment with SNB-75 CNS, 60.5 µM; with U251 CNS it was 36.6 µM. Besides, the TGI in the experiment with NCI-H460 lung, with RPMI-8226 leukemia, in the experiment with RXF 393 renal, in the experiment on SF-268 CNS, with SF-295 CNS and with SF-539 CNS was above 100 µM in each case. The TGI in the experiment with SK-MEL-5 melanoma, in the experiment on SN12C renal, in the experiment on SNB-75 CNS and with U251 CNS was above 100 µM throughout.
With `CCN(CC)c1ccc(/C=N\NC(=O)c2cccc(Nc3ccnc(C(F)(F)F)c3)c2)c(O)c1`, the GI50 in the experiment on NCI-H460 lung is 0.199 µM; in the experiment with RPMI-8226 leukemia, 0.152 µM; with RXF 393 renal, 0.216 µM; in the experiment with SF-268 CNS it was 0.083 µM; with SF-295 CNS, 0.312 µM; in the experiment on SF-539 CNS, 0.279 µM. Moreover, the GI50 is 0.242 µM in the experiment with SK-MEL-5 melanoma, 0.278 µM in the experiment with SN12C renal, 0.253 µM with SNB-75 CNS and 0.183 µM with U251 CNS. Also, the TGI with NCI-H460 lung was 2.24 µM; in the experiment with RPMI-8226 leukemia it was 2.2 µM; in the experiment on RXF 393 renal, 1.9 µM; in the experiment on SF-268 CNS, above 27.3 µM; in the experiment with SF-295 CNS it was 2.47 µM; with SF-539 CNS it was 1.45 µM. Besides, the TGI in the experiment with SK-MEL-5 melanoma is 0.883 µM; in the experiment on SN12C renal, above 36.5 µM; with SNB-75 CNS, 7.44 µM; in the experiment with U251 CNS, above 37.5 µM.
Turning to `CC(C)=CCC[C@](C)(O)[C@H]1CC[C@]2(C)[C@@H]1CC[C@@H]1[C@@]3(C)CC[C@H](OC(=O)CCC(=O)O)C(C)(C)[C@@H]3CC[C@]12C`, the GI50 was 36.4 µM in the experiment on NCI-H460 lung; 7.65 µM with RPMI-8226 leukemia; 17.4 µM in the experiment on RXF 393 renal; 29.9 µM with SF-268 CNS; 28.6 µM with SF-295 CNS; 19.7 µM with SF-539 CNS. Also, the GI50 was 17.8 µM in the experiment with SK-MEL-5 melanoma, 25.5 µM with SN12C renal, above 100 µM in the experiment with SNB-75 CNS and 28.1 µM with U251 CNS. The TGI in the experiment on NCI-H460 lung is above 100 µM; in the experiment on RPMI-8226 leukemia it was 52.9 µM; in the experiment with RXF 393 renal it was 85 µM; with SF-268 CNS it was above 100 µM; with SF-295 CNS, 92.5 µM; with SF-539 CNS, 57.8 µM. Besides, the TGI with SK-MEL-5 melanoma is 43.2 µM; in the experiment on SN12C renal, 78.1 µM; with SNB-75 CNS, above 100 µM; in the experiment with U251 CNS it was above 100 µM.
Consider `C/C(=N\NC(=S)Nc1ccc([N+](=O)[O-])cc1S(=O)(=O)O)c1ccccn1`, for which the TGI was 69 µM in the experiment with NCI-H460 lung; above 100 µM in the experiment with RPMI-8226 leukemia; 86.1 µM in the experiment on RXF 393 renal; above 100 µM with SF-268 CNS; above 100 µM in the experiment on SF-295 CNS; above 100 µM in the experiment on SF-539 CNS. In addition, the TGI in the experiment on SK-MEL-5 melanoma, with SN12C renal, in the experiment on SNB-75 CNS and in the experiment on U251 CNS was above 100 µM throughout.
On to `N#CC(/C(=N\NC(N)=S)C(=O)NC1C2CC3CC(C2)CC1C3)c1ccc(Cl)cc1` (centres undefined), for which the TGI with NCI-H460 lung, with RPMI-8226 leukemia, in the experiment with RXF 393 renal, in the experiment on SF-268 CNS, with SF-295 CNS and in the experiment with SF-539 CNS was above 100 µM in each case. The TGI with SK-MEL-5 melanoma, in the experiment with SN12C renal, with SNB-75 CNS and in the experiment with U251 CNS was above 100 µM each time.
For `S=C1OC2C3C4CC5C3C(O1)C1C5C4C21` (centres undefined), the TGI with NCI-H460 lung, in the experiment with RPMI-8226 leukemia, in the experiment on RXF 393 renal, in the experiment on SF-268 CNS, in the experiment on SF-295 CNS and with SF-539 CNS was above 100 µM each time. Moreover, the TGI in the experiment on SK-MEL-5 melanoma, in the experiment with SN12C renal, in the experiment with SNB-75 CNS and in the experiment on U251 CNS was above 100 µM in each case.
With `COc1cc(C(N)=O)c(OC)c(OC)c1OC`, the TGI in the experiment on NCI-H460 lung, in the experiment with RPMI-8226 leukemia, in the experiment with RXF 393 renal, with SF-268 CNS, in the experiment with SF-295 CNS and with SF-539 CNS was above 100 µM each time. Moreover, the TGI with SK-MEL-5 melanoma, in the experiment on SN12C renal, in the experiment with SNB-75 CNS and in the experiment with U251 CNS was above 100 µM in each case.
As to `Cc1nc(Nc2ccc([N+](=O)[O-])cc2)sc1C(=O)/C=C/c1ccc(N(C)C)cc1`, the TGI in the experiment on NCI-H460 lung, in the experiment on RPMI-8226 leukemia, in the experiment on RXF 393 renal, with SF-268 CNS, in the experiment on SF-295 CNS and in the experiment with SF-539 CNS was above 100 µM throughout. Moreover, the TGI with SK-MEL-5 melanoma, with SN12C renal, with SNB-75 CNS and in the experiment on U251 CNS was above 100 µM in each case.
`C[C@@H]1CC[C@H]2C(CN3CCN(CC4=C(C(F)(F)F)O[C@@H]5O[C@@]6(C)CC[C@H]7[C@H](C)CC[C@@H]4[C@@]57OO6)CC3)=C(C(F)(F)F)O[C@@H]3O[C@@]4(C)CC[C@@H]1[C@]32OO4`: the GI50 in the experiment on NCI-H460 lung was 3.14 µM; in the experiment on RPMI-8226 leukemia, 0.43 µM; in the experiment with RXF 393 renal, 1.05 µM; in the experiment with SF-268 CNS it was 4.24 µM; in the experiment on SF-295 CNS, 5.01 µM; with SF-539 CNS, 0.567 µM. In addition, the GI50 in the experiment with SK-MEL-5 melanoma is 2.96 µM; in the experiment with SN12C renal, 3.85 µM; in the experiment with SNB-75 CNS, 1.74 µM; in the experiment on U251 CNS it was 0.653 µM. In addition, the TGI with NCI-H460 lung was above 100 µM; with RXF 393 renal it was above 54.3 µM; in the experiment with SF-268 CNS, above 100 µM; in the experiment with SF-295 CNS, above 100 µM; in the experiment with SF-539 CNS it was above 100 µM; in the experiment on SK-MEL-5 melanoma, above 100 µM. Further, the values for the TGI in the experiment with SN12C renal, with SNB-75 CNS and in the experiment on U251 CNS were above 100 µM, above 29.4 µM and above 39.9 µM, respectively.
